Laboratory results from patent US11945822B2, “Pyrazolo-triazine and/or pyrazolo-pxrimidine derivatives as selective inhibitor of cyclin dependent kinase” (QURIENT CO., LTD., priority 2018, dated 2024).

Test system: MV4-11
Experiment: Cellular MV4-11 viability assay (CellTiter-Glo, 72 hours)
Type: cell-based
Conditions: Homo sapiens
Experimental: (§1) All cell lines were routinely tested for mycoplasma.
(§2) The effect of the CDK7 inhibitor to inhibit the growth of target cancer cells was evaluated through the 72 hours time period of viability assay. Briefly, the candidate cell line ware plated in 96 well plate at the following density of cells respectively. […] DMSO solvent without compound served as a control and final DMSO concentration less than 0.1%. After 72 hours of incubation at 37° C., 5% CO2 incubator, cells were analyzed for the viability using the CellTiter-Glo Luminescent Cell Viability Assay (Promega, Cat #G7570). All viability assays were performed in duplicate and Luminescence was read using an Envision (Perkin Elmer, USA). Data was analyzed using XLfit software.

IC50 | Structure (SMILES)
< 1000 nM | CNC(=O)c1cc2cn(-c3ccccc3CNc3nc(N4CCC(N)CC4)nc4c(C(C)C)cnn34)nc2cc1F [Compound 157]
< 1000 nM | CC(C)c1cnn2c(NCc3c(Cl)cccc3-n3ccc(N4CCOCC4)n3)nc(N3CCC(N)CC3)nc12 [Compound 202]
< 1000 nM | CC(C)c1cnn2c(NCc3ccccc3-n3ccc(C(C)(C)O)n3)nc(N3CCC(N)CC3)nc12 [Compound 236]
1000 to 10000 nM | CC(=O)NC1CCN(c2nc(NCc3c(Cl)cccc3-n3ccc(C(C)(C)O)n3)n3ncc(C(C)C)c3n2)CC1 [Compound 199]

Test system: HCT116
Experiment: Cellular HCT116 viability assay (CellTiter-Glo, 72 hours)
Type: cell-based
Conditions: Homo sapiens, HCT-116
Experimental: as §1, §2

IC50 | Structure (SMILES)
< 1000 nM | CNC(=O)c1cc2cn(-c3ccccc3CNc3nc(N4CCC(N)CC4)nc4c(C(C)C)cnn34)nc2cc1F [Compound 157]
< 1000 nM | CC(C)c1cnn2c(NCc3c(Cl)cccc3-n3ccc(N4CCOCC4)n3)nc(N3CCC(N)CC3)nc12 [Compound 202]
< 1000 nM | CC(C)c1cnn2c(NCc3ccccc3-n3ccc(C(C)(C)O)n3)nc(N3CCC(N)CC3)nc12 [Compound 236]
< 1000 nM | CC(=O)NC1CCN(c2nc(NCc3c(Cl)cccc3-n3ccc(C(C)(C)O)n3)n3ncc(C(C)C)c3n2)CC1 [Compound 199]

Target: T1, CDK7/Cyclin H/MNAT1 (Homo sapiens, UniProt P50613)
T1 construct: purchased Invitrogen PR6749B
Experiment: Enzymatic assay for CDK7 (FRET based LANCE Ultra kinase assay)
Type: biochemical
Conditions: CDK7 over CDK1
Procedure, shortened: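 Inhibition was measured at Km ATP by time-resolved FRET between a Eu anti-phospho antibody and a phosphorylated ULight peptide. The enzyme was the purified CDK7/cyclin complex, and data were curve-fitted.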

T1 sequence (P50613 whole entry): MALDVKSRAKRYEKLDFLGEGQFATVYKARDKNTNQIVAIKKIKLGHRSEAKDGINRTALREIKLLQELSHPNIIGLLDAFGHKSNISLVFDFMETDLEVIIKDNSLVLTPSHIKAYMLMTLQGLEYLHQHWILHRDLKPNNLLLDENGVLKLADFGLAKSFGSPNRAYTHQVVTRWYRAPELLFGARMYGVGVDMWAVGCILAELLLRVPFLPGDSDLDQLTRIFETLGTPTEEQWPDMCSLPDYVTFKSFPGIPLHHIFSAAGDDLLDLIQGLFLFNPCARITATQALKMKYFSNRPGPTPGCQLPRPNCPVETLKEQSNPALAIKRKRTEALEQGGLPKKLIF
T1 sequence (P51946 whole entry partner): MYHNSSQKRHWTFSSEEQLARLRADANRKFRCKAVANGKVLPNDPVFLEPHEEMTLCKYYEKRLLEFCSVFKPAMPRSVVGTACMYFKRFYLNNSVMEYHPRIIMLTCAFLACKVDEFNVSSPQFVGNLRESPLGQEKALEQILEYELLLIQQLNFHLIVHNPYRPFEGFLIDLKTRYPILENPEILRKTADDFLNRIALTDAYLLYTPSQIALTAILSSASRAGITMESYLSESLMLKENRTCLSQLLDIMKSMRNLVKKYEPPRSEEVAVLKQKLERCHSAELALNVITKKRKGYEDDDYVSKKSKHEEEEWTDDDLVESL
T1 sequence (P51948 whole entry partner): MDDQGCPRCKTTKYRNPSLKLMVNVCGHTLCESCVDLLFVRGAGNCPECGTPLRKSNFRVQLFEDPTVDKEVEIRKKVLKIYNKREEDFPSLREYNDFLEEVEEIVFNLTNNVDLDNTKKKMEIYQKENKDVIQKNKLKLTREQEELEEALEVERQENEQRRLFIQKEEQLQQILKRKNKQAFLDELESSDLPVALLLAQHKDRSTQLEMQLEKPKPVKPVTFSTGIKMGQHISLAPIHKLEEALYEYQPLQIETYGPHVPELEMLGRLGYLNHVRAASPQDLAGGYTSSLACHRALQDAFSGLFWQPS

CDK1/CDK7: Selectivity of CDK7 inhibition over CDK1 inhibition | Structure (SMILES)
A (A=greater than 200 fold) | CNC(=O)c1cc2cn(-c3ccccc3CNc3nc(N4CCC(N)CC4)nc4c(C(C)C)cnn34)nc2cc1F [Compound 157]
A (A=greater than 200 fold) | CC(C)c1cnn2c(NCc3c(Cl)cccc3-n3ccc(N4CCOCC4)n3)nc(N3CCC(N)CC3)nc12 [Compound 202]
A (A=greater than 200 fold) | CC(C)c1cnn2c(NCc3ccccc3-n3ccc(C(C)(C)O)n3)nc(N3CCC(N)CC3)nc12 [Compound 236]
A (A=greater than 200 fold) | CC(=O)NC1CCN(c2nc(NCc3c(Cl)cccc3-n3ccc(C(C)(C)O)n3)n3ncc(C(C)C)c3n2)CC1 [Compound 199]

Same assay, conditions: CDK7 over CDK2

CDK2/CDK7: Selectivity of CDK7 inhibition over CDK2 inhibition | Structure (SMILES)
A (A=greater than 200 fold) | CNC(=O)c1cc2cn(-c3ccccc3CNc3nc(N4CCC(N)CC4)nc4c(C(C)C)cnn34)nc2cc1F [Compound 157]
A (A=greater than 200 fold) | CC(C)c1cnn2c(NCc3c(Cl)cccc3-n3ccc(N4CCOCC4)n3)nc(N3CCC(N)CC3)nc12 [Compound 202]
A (A=greater than 200 fold) | CC(=O)NC1CCN(c2nc(NCc3c(Cl)cccc3-n3ccc(C(C)(C)O)n3)n3ncc(C(C)C)c3n2)CC1 [Compound 199]

Structure (SMILES) | CDK2/CDK7: Selectivity of CDK7 inhibition over CDK2 inhibition
CC(C)c1cnn2c(NCc3ccccc3-n3ccc(C(C)(C)O)n3)nc(N3CCC(N)CC3)nc12 [Compound 236] | B (B=less than 200 fold, but greater than 20 fold)

Same assay, conditions: CDK7 over CDK5

Structure (SMILES) | CDK5/CDK7: Selectivity of CDK7 inhibition over CDK5 inhibition
CNC(=O)c1cc2cn(-c3ccccc3CNc3nc(N4CCC(N)CC4)nc4c(C(C)C)cnn34)nc2cc1F [Compound 157] | B (B=less than 200 fold, but greater than 20 fold)
CC(C)c1cnn2c(NCc3c(Cl)cccc3-n3ccc(N4CCOCC4)n3)nc(N3CCC(N)CC3)nc12 [Compound 202] | A (A=greater than 200 fold)
CC(C)c1cnn2c(NCc3ccccc3-n3ccc(C(C)(C)O)n3)nc(N3CCC(N)CC3)nc12 [Compound 236] | B (B=less than 200 fold, but greater than 20 fold)
CC(=O)NC1CCN(c2nc(NCc3c(Cl)cccc3-n3ccc(C(C)(C)O)n3)n3ncc(C(C)C)c3n2)CC1 [Compound 199] | A (A=greater than 200 fold)

Same assay, conditions: read-out: CDK7 enzymatic activity (IC50 range)

IC50 | Structure (SMILES)
< 100 nM | CNC(=O)c1cc2cn(-c3ccccc3CNc3nc(N4CCC(N)CC4)nc4c(C(C)C)cnn34)nc2cc1F [Compound 157]
< 100 nM | CC(C)c1cnn2c(NCc3c(Cl)cccc3-n3ccc(N4CCOCC4)n3)nc(N3CCC(N)CC3)nc12 [Compound 202]
< 100 nM | CC(C)c1cnn2c(NCc3ccccc3-n3ccc(C(C)(C)O)n3)nc(N3CCC(N)CC3)nc12 [Compound 236]
< 100 nM | CC(=O)NC1CCN(c2nc(NCc3c(Cl)cccc3-n3ccc(C(C)(C)O)n3)n3ncc(C(C)C)c3n2)CC1 [Compound 199]

Target: T2, CDK1/Cyclin B (Homo sapiens, UniProt P06493)
T2 construct: purchased Invitrogen PR4768C
Experiment: Enzymatic assay for CDK1 (FRET based LANCE Ultra kinase assay)
Type: biochemical
Conditions: read-out: CDK1 enzymatic activity (IC50 range)
Procedure, shortened: (§3)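 LANCE Ultra TR-FRET: ULight-MBP peptide (68 nM) with ATP at Km, […], 60 min at 23° C. EDTA plus Eu-anti-phospho-MBP added, another 60 min, then 665/615 nm emission read. Compounds tested as 8-dose 4-fold DMSO dilutions.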

T2 sequence (P06493 whole entry): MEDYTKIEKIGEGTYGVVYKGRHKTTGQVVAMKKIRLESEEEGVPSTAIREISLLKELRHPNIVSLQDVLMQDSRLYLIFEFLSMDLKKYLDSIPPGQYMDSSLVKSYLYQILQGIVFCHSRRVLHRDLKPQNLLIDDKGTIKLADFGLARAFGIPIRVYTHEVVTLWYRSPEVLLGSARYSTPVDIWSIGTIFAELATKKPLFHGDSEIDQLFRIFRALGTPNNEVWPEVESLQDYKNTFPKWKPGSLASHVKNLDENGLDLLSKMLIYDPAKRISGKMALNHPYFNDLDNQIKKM
T2 sequence (P14635 whole entry partner): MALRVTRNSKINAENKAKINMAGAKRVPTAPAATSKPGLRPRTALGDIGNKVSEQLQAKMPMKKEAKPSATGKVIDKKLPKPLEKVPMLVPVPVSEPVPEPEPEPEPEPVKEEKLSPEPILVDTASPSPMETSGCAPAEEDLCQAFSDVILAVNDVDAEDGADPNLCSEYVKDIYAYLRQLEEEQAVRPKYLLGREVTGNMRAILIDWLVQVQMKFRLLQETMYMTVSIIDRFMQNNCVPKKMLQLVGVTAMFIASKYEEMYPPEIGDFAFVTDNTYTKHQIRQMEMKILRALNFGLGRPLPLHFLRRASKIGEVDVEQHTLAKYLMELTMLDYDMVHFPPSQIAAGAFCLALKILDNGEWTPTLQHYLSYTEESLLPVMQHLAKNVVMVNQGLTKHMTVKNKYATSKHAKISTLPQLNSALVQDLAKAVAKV

IC50 | Structure (SMILES)
> 1000 nM | CNC(=O)c1cc2cn(-c3ccccc3CNc3nc(N4CCC(N)CC4)nc4c(C(C)C)cnn34)nc2cc1F [Compound 157]
> 1000 nM | CC(C)c1cnn2c(NCc3c(Cl)cccc3-n3ccc(N4CCOCC4)n3)nc(N3CCC(N)CC3)nc12 [Compound 202]
100 to 1000 nM | CC(C)c1cnn2c(NCc3ccccc3-n3ccc(C(C)(C)O)n3)nc(N3CCC(N)CC3)nc12 [Compound 236]
> 1000 nM | CC(=O)NC1CCN(c2nc(NCc3c(Cl)cccc3-n3ccc(C(C)(C)O)n3)n3ncc(C(C)C)c3n2)CC1 [Compound 199]

Target: T3, CDK2/Cyclin A (Homo sapiens, UniProt P24941)
T3 construct: purchased Invitrogen PV6290
Experiment: Enzymatic assay for CDK2 (FRET based LANCE Ultra kinase assay)
Type: biochemical
Conditions: read-out: CDK2 enzymatic activity (IC50 range)
Procedure, shortened: as §3

IC50 | Structure (SMILES)
100 to 1000 nM | CNC(=O)c1cc2cn(-c3ccccc3CNc3nc(N4CCC(N)CC4)nc4c(C(C)C)cnn34)nc2cc1F [Compound 157]
> 1000 nM | CC(C)c1cnn2c(NCc3c(Cl)cccc3-n3ccc(N4CCOCC4)n3)nc(N3CCC(N)CC3)nc12 [Compound 202]
100 to 1000 nM | CC(C)c1cnn2c(NCc3ccccc3-n3ccc(C(C)(C)O)n3)nc(N3CCC(N)CC3)nc12 [Compound 236]
> 1000 nM | CC(=O)NC1CCN(c2nc(NCc3c(Cl)cccc3-n3ccc(C(C)(C)O)n3)n3ncc(C(C)C)c3n2)CC1 [Compound 199]

Target: T4, CDK5/p25 (Homo sapiens, UniProt Q00535)
T4 construct: purchased Invitrogen PR8543B
Experiment: Enzymatic assay for CDK5 (FRET based LANCE Ultra kinase assay)
Type: biochemical
Conditions: read-out: CDK5 enzymatic activity (IC50 range)
Procedure, shortened: as §3

T4 sequence (Q00535 whole entry): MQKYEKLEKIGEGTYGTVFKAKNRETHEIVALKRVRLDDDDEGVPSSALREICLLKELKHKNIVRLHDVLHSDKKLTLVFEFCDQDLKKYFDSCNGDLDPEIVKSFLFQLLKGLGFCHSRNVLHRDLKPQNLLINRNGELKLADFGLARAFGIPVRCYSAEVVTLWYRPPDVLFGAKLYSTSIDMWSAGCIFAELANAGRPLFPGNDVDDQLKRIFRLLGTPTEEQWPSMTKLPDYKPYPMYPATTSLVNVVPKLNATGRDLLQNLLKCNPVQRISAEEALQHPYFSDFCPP
T4 sequence (Q15078 99-307 partner limits assumed): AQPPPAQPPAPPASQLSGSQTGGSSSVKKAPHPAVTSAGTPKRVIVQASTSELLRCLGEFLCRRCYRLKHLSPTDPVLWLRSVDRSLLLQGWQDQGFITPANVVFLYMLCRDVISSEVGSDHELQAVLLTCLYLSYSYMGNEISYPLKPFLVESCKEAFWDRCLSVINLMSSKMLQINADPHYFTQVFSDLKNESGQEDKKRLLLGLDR

IC50 | Structure (SMILES)
100 to 1000 nM | CNC(=O)c1cc2cn(-c3ccccc3CNc3nc(N4CCC(N)CC4)nc4c(C(C)C)cnn34)nc2cc1F [Compound 157]
> 1000 nM | CC(C)c1cnn2c(NCc3c(Cl)cccc3-n3ccc(N4CCOCC4)n3)nc(N3CCC(N)CC3)nc12 [Compound 202]
100 to 1000 nM | CC(C)c1cnn2c(NCc3ccccc3-n3ccc(C(C)(C)O)n3)nc(N3CCC(N)CC3)nc12 [Compound 236]
> 1000 nM | CC(=O)NC1CCN(c2nc(NCc3c(Cl)cccc3-n3ccc(C(C)(C)O)n3)n3ncc(C(C)C)c3n2)CC1 [Compound 199]

Test system: H460
Experiment: Cellular H460 viability assay (CellTiter-Glo, 72 hours)
Type: cell-based
Conditions: Homo sapiens, NCI-H460
Procedure, shortened: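 Luminescent ATP read-out (CellTiter-Glo) after 72 h compound exposure at 37 °C/5% CO2; duplicate wells; vehicle control DMSO <0.1% final; seeding density set per cell line.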

IC50 | Structure (SMILES)
< 1000 nM | CNC(=O)c1cc2cn(-c3ccccc3CNc3nc(N4CCC(N)CC4)nc4c(C(C)C)cnn34)nc2cc1F [Compound 157]
< 1000 nM | CC(C)c1cnn2c(NCc3c(Cl)cccc3-n3ccc(N4CCOCC4)n3)nc(N3CCC(N)CC3)nc12 [Compound 202]
< 1000 nM | CC(C)c1cnn2c(NCc3ccccc3-n3ccc(C(C)(C)O)n3)nc(N3CCC(N)CC3)nc12 [Compound 236]
< 1000 nM | CC(=O)NC1CCN(c2nc(NCc3c(Cl)cccc3-n3ccc(C(C)(C)O)n3)n3ncc(C(C)C)c3n2)CC1 [Compound 199]
